Experimental data as given in patent US10844077B2, “Thiazolyl-containing compounds for treating proliferative diseases” (Dana-Farber Cancer Institute, Inc., priority 2014, dated 2020).

Assays:
BTK = BTK (Homo sapiens (Human), UniProt Q06187); experiment: BTK inhibitory activity; format: biochemical
BCWM.1 = experiment: CellTiter-Glo Luminescent cell viability assay; format: cell-based; details: cell survival, 72 hours
Description: (§1) The inhibitory activities of exemplary compounds described herein against select protein kinases and cells were determined. Cell survival following treatment of exemplary compounds described herein was assessed by CellTiter-Glo® Luminescent cell viability assay (Promega). The cells were seeded into 384 well plates with the EL406 Combination Washer Dispenser (BioTek Instruments, Inc.), and a series diluted exemplary compounds (20˜0.0006 μM) were injected into the culture media with the JANUS Automated Workstation (PerkinElmer Inc.). The cells were treated for 72 hours at 37° C. with 5% CO2. Luminescent measurement is performed using the 2104 Envision® Multilabel Reader (PerkinElmer Inc.). EC50 values were calculated with […] PRISM software.

TMD-8 = experiment: CellTiter-Glo Luminescent cell viability assay; format: cell-based; details: cell survival, 72 hours
Description: as §1

HBL-1 = experiment: CellTiter-Glo Luminescent cell viability assay; format: cell-based; details: cell survival, 72 hours
Description: as §1

MWCL-1 = experiment: CellTiter-Glo Luminescent cell viability assay; format: cell-based; details: cell survival, 72 hours
Description: as §1

Ramos = experiment: CellTiter-Glo Luminescent cell viability assay; format: cell-based; details: cell survival, 72 hours
Description: as §1

OCI-Ly3 = experiment: CellTiter-Glo Luminescent cell viability assay; format: cell-based; details: cell survival, 72 hours
Description: as §1

OCI-Ly19 = experiment: CellTiter-Glo Luminescent cell viability assay; format: cell-based; details: cell survival, 72 hours
Description: as §1

OCI-Ly7 = experiment: CellTiter-Glo Luminescent cell viability assay; format: cell-based; details: cell survival, 72 hours
Description: as §1

HCK = HCK (Homo sapiens (Human), UniProt P08631); experiment: HCK inhibitory activity; format: biochemical
Sequence of HCK (P08631 whole entry): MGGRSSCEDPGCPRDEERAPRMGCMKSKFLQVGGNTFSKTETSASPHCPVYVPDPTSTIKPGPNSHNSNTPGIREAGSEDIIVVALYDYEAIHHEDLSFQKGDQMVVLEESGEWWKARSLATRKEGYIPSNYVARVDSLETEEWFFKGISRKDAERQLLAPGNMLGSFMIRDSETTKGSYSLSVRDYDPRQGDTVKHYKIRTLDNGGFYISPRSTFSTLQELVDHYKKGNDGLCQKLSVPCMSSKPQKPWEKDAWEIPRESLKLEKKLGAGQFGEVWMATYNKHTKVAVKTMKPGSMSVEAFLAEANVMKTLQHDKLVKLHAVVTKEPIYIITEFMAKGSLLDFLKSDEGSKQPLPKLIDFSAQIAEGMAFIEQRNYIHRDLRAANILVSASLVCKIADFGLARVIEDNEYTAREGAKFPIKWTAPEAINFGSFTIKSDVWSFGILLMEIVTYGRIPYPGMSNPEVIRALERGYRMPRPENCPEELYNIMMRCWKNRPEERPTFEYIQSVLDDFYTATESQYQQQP

RPMI-8226 = experiment: CellTiter-Glo Luminescent cell viability assay; format: cell-based; details: Homo sapiens, cell survival, 72 hours
Description: as §1

OPM-2 = experiment: CellTiter-Glo Luminescent cell viability assay; format: cell-based; details: Homo sapiens, cell survival, 72 hours
Description: as §1

Sequence of BTK (Q06187 whole entry, looked up): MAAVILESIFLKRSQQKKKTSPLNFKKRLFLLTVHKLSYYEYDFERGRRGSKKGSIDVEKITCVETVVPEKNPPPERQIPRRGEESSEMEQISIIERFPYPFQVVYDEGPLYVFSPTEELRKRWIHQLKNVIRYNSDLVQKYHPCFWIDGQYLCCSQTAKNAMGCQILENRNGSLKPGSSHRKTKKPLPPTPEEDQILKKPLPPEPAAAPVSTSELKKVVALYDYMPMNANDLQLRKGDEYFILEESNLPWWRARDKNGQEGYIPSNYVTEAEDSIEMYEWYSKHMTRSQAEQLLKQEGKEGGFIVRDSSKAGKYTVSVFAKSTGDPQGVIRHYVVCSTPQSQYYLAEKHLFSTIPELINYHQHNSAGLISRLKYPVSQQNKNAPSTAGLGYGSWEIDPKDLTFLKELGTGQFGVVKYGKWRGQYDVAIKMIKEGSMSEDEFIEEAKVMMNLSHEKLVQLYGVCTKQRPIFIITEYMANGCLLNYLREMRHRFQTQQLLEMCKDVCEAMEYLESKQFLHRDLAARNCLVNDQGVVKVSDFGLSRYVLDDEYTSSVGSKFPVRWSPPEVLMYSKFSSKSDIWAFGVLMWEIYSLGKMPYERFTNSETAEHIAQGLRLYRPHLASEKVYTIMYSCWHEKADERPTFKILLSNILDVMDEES

Compound | IC50 (BTK) [nM] | EC50 (BCWM.1) [nM] | EC50 (TMD-8) [nM] | EC50 (HBL-1) [nM] | EC50 (MWCL-1) [nM] | EC50 (Ramos) [nM] | EC50 (OCI-Ly3) [nM] | EC50 (OCI-Ly19) [nM] | EC50 (OCI-Ly7) [nM] | IC50 (HCK) [nM] | EC50 (RPMI-8226) [nM] | EC50 (BCWM.1; BCWM1) [nM] | EC50 (Ramos; Homo sapiens, Ramos) [nM] | EC50 (TMD-8; Homo sapiens, TMD8) [nM] | EC50 (HBL-1; HBL1) [nM] | EC50 (OCI-Ly3; Homo sapiens, OCI-Ly3) [nM] | EC50 (OCI-Ly7; Homo sapiens, OCI-Ly7) [nM] | EC50 (OCI-Ly19; Homo sapiens, OCI-LY19) [nM] | EC50 (OPM-2) [nM]
C=CC(=O)N1CC[C@H](Nc2nc(CN3CCOCC3)cc(Nc3ncc(C(=O)Nc4c(C)cccc4Cl)s3)n2)C1 [Compound I-1] | 1.61 | 73.4 | 301 | 522 | 50 |  |  |  |  |  |  |  |  |  |  |  |  |  | 
C=CC(=O)N1CC[C@H](Nc2nc(CN3CCOCC3)cc(Nc3ncc(C(=O)Nc4c(C)cccc4C)s3)n2)C1 [Compound I-2] | 1.63 | 41 | 311 | 1670 | 67 | > 20000 | > 20000 | > 20000 |  |  |  |  |  |  |  |  |  |  | 
C=CC(=O)N1CC[C@H](Nc2nccc(Nc3ncc(C(=O)Nc4c(C)cccc4C)s3)n2)C1 [Compound I-3] | 0.6 | 19.3 | 158 | 669 | 55.2 | > 20000 | 39500 | 13000 | 370 |  |  |  |  |  |  |  |  |  | 
C=CC(=O)N1CC[C@@H](Nc2nccc(Nc3ncc(C(=O)Nc4c(C)cccc4C)s3)n2)C1 [Compound I-4] | 1.38 | 53 | 315 | 449 | 85 | > 20000 |  | 4270 |  |  |  |  |  |  |  |  |  |  | 
C=CC(=O)N1CCC[C@@H](Nc2nccc(Nc3ncc(C(=O)Nc4c(C)cccc4C)s3)n2)C1 [Compound I-6] | 1.9 | 69.6 | 80.2 | 229 | 93.7 |  |  |  | 520 |  |  |  |  |  |  |  |  |  | 
C=CC(=O)N1CCCCC(Nc2nccc(Nc3ncc(C(=O)Nc4c(C)cccc4C)s3)n2)C1 (stereo not drawn) [Compound I-7] | < 0.495 | 22 | 49 | 70 | 19 | 133 |  | 399 |  | < 0.495 |  |  |  |  |  |  |  |  | 
C=CC(=O)N1CCC(CNc2nccc(Nc3ncc(C(=O)Nc4c(C)cccc4C)s3)n2)C1 (stereo not drawn) [Compound I-8] | < 0.495 | 75 | 301 | 522 | 103 | 7970 |  | 3770 |  | < 0.495 |  |  |  |  |  |  |  |  | 
CCC(=O)N1CC[C@H](Nc2nccc(Nc3ncc(C(=O)Nc4c(C)cccc4C)s3)n2)C1 [Compound I-9] | 0.5 | 9.84 | 70.9 | 220 | 25 | > 20000 | 14500 | 10000 |  | < 0.495 |  |  |  |  |  |  |  |  | 
C=CC(=O)N1CC[C@H](Nc2nccc(Nc3ncc(C(=O)Nc4c(C)cccc4Cl)s3)n2)C1 [Compound I-10] | 1.74 | 170 | 1010 | 1640 | 191 | 12 |  | 5700 |  |  |  |  |  |  |  |  |  |  | 
C=CC(=O)N1CCCCC(Nc2nccc(Nc3ncc(C(=O)Nc4c(C)cccc4Cl)s3)n2)C1 (stereo not drawn) [Compound I-11] | 5.52 | 129 | 500 | 623 | 245 | 1580 |  | 3680 |  |  |  |  |  |  |  |  |  |  | 
C=CC(=O)N1CCCC(Nc2nc(CN3CCOCC3)cc(Nc3ncc(C(=O)Nc4c(C)cccc4C)s3)n2)C1 (stereo not drawn) [Compound I-12] |  | 75.5 | 453 | 1200 | 317 |  |  |  | 309 |  |  |  |  |  |  |  |  |  | 
Cc1nc(Nc2ncc(C(=O)Nc3c(C)cccc3Cl)s2)cc(N2CCN(CCO)CC2)n1 [Dasatinib, dasatinib, reference compound] |  |  |  |  | 7.41 |  |  |  |  |  | 5390 | 1.2 | 4560 | 18.7 | 190 | 8060 | 155 | 3860 | 7110
C=CC(=O)N1CCCC(Cn2ccc(Nc3ncc(C(=O)Nc4c(C)cccc4Cl)s3)n2)C1 (stereo not drawn) [II-2] | < 0.495 | 196 | 929 | 1000 | 166 | > 20000 |  | 6540 |  |  |  |  |  |  |  |  |  |  | 
C=CC(=O)N1CCC(n2cc(Nc3ncc(C(=O)Nc4c(C)cccc4Cl)s3)cn2)CC1 [II-3] | 19.9 | 690 | 2540 | 3650 | 772 | > 20000 |  | 9970 |  |  |  |  |  |  |  |  |  |  | 
C=CC(=O)N1CC[C@H](Nc2nccc(Nc3nc4ccc(Oc5ccccc5)nc4s3)n2)C1 [III-1] | 86.6 | 1830 | 3850 | 3200 | 4080 | 3700 |  | 1250 |  |  |  |  |  |  |  |  |  |  | 
C=CC(=O)N1CC[C@@H](Nc2nccc(Nc3nc4ccc(Oc5ccccc5)nc4s3)n2)C1 [III-2] | 281 | 916 | 2640 | 2960 | 1350 | 2300 |  | 1100 |  |  |  |  |  |  |  |  |  |  | 
C=CC(=O)N1CCC[C@H](Nc2nccc(Nc3nc4ccc(Oc5ccccc5)nc4s3)n2)C1 [III-3] | 19.4 | 2710 | 4130 | 2960 | 5750 | 8460 |  | 2500 |  |  |  |  |  |  |  |  |  |  | 
C=CC(=O)N1CCC[C@@H](Nc2nccc(Nc3nc4ccc(Oc5ccccc5)nc4s3)n2)C1 [III-4] | 367 | 808 | 2120 | 2550 | 2160 | 2190 |  | 1170 |  |  |  |  |  |  |  |  |  |  | 
C=CC(=O)N1CCCCC(Nc2nccc(Nc3nc4ccc(Oc5ccccc5)nc4s3)n2)C1 (stereo not drawn) [III-5] | 9.06 | 1190 | 1230 | 896 | 3370 | 2720 |  | 1330 |  |  |  |  |  |  |  |  |  |  | 
Cn1ccc(Nc2nc3ccc(Oc4ccccc4)nc3s2)n1 [III-6] | 2580 | 270 | 467 | 450 | 2170 | 749 |  | 321 |  |  |  |  |  |  |  |  |  |  | 
Cn1cc(Nc2nc3ccc(Oc4ccccc4)nc3s2)cn1 [III-7] | > 10000 | > 20000 | > 20000 | > 20000 | > 20000 | > 20000 |  | 9520 |  | > 10000 |  |  |  |  |  |  |  |  | 
c1ccc(Oc2ccc3nc(Nc4cnn(C5CCOCC5)c4)sc3n2)cc1 [III-8] | > 10000 | 7250 | 14600 | > 20000 | > 20000 | > 20000 |  | 12600 |  | > 10000 |  |  |  |  |  |  |  |  | 
c1ccc(Oc2ccc3nc(Nc4cnn(C5CCNCC5)c4)sc3n2)cc1 [III-9] | 2660 | 8290 | 18300 | > 20000 | 16600 | 11800 |  | 7060 |  |  |  |  |  |  |  |  |  |  | 
